Experimental data: US9834542B2, “LXR modulators” (BRISTOL-MYERS SQUIBB COMPANY, priority 2013, dated 2017)

Target: T1, LXRβ (Homo sapiens, UniProt P55055)
T1 construct: Co-transfection expression plasmids, comprising full-length LXRα (pCMX-h LXRα[…] or LXRβ (pCMX-hLXRβ)); expressed in transfected cells; host or cells: CV-1 African Green Monkey Kidney Cells
T1 sequence (P55055 1-460): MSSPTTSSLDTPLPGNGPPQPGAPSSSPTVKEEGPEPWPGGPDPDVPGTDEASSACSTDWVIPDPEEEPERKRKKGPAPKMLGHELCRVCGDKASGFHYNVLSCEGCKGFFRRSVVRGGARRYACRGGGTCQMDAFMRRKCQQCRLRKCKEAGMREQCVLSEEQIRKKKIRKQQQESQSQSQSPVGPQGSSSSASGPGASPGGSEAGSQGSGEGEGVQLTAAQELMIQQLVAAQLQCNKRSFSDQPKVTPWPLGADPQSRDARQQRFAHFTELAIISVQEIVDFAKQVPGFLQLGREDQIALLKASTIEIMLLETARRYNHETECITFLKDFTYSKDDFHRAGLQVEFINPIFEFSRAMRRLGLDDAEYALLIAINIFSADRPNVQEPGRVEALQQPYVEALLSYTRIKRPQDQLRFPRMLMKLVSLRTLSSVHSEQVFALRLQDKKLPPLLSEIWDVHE
T1 sequence (P19793 1-462 partner): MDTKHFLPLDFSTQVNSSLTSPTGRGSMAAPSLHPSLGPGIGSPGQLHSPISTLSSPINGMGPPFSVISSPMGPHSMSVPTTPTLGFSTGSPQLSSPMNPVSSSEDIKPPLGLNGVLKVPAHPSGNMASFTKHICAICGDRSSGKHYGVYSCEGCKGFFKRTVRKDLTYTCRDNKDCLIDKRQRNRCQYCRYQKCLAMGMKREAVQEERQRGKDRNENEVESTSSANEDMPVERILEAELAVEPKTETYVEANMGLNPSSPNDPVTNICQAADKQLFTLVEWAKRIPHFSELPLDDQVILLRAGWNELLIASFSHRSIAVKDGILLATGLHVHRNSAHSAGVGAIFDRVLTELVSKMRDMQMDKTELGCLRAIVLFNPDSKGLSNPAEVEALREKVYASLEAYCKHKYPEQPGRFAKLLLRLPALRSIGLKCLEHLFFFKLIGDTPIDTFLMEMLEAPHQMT
Assay: Co-transfection assay (LXRE luciferase reporter), LXRβ
Type: cell-based
Conditions: for EC50: CV-1 cells transfected with pCMX-hLXRβ and LXREx1-Tk-Luciferase, 20 hours incubation; for Emax: LXRβ co-transfection, relative to high control 1-(2,4-difluorobenzyl)-2-oxo-6-(4-phenoxyphenyl)-4-(trifluoromethyl)-1,2-dihydropyridine-3-carbonitrile, read-out: % Efficacy
From the text: To measure the ability of compounds to activate or inhibit the transcriptional activity of LXR in a cell based assay, the co-transfection assay was used. It has been shown that LXR functions as a heterodimer with RXR. For the co-transfection assay, expression plasmids for LXRα and LXRβ are introduced separately via transient transfection into mammalian cells along with a luciferase reporter plasmid that contains one copy of a DNA sequence that is bound by LXR-RXR heterodimers (LXRE; Willy, P. et. al. 1995). LXRs heterodimerize with the endogenous RXR. Treatment of transfected cells with an LXR agonist increases the transcriptional activity of LXR, which is measured by an increase in luciferase activity.
CV-1 African Green Monkey Kidney Cells
Co-transfection expression plasmids, comprising full-length LXRα (pCMX-h LXRα[…] or LXRβ (pCMX-hLXRβ), reporter plasmid (LXREx1-Tk-Luciferase), and control (pCMX-Galactosidase expression vector) (Willey et al. Genes & Development 9 1033-1045 (1995)).
CV-1 cells were prepared 24 hours prior to the experiment by plating them into T-175 flasks or 500 cm^2 dishes in order to achieve 70-80% confluency on the day of the transfection. The number of cells to be transfected was determined by the number of plates to be screened. Each well of a 384 well plate requires 1.5×10^4 cells. DNA Transfection Reagent was prepared by mixing the required plasmid DNAs with a cationic lipid transfection reagent Transit 2020 (Mirus Bio) for CV1 by following the instructions provided with the reagents. Optimal DNA amounts were determined empirically per cell line and size of vessel to be transfected. For each T175 cm^2 flask a total of 59 ug for CV1 of DNA, 133 uL Transit2020 and 4.5 mL DMEM for CV1 was mixed and added. Cells were then incubated at least 5 hours at 37° C. to prepare screening cells.
Luciferase assay reagent (*Steady-Glo Luciferase Assay System by Promega, CAT#E2550) was prepared by combining before use:
Assay plates were prepared by dispensing 5 μL of compound per well of a 384 well plate to achieve final compound concentration of 10 μM and no more than 0.5% DMSO. Media was removed from the screening cells, the cells trypsinized, harvested cells by centrifugation, counted, and plated at a density of approximately 1.5×10^4 cells in the 384 well assay plate prepared above in a volume of about 95 uL. Assay plates containing both compounds and screening cells (100 μL in total volume) were incubated for 20 hours at 37° C.
After incubation with compounds, media was removed from the cells and luciferase assay reagent (50 μL/well) added. After ˜2 minutes at ambient temperature, the assay plates were read on a luminometer (PE Biosystems Northstar reader with on-board injectors, or Envision(Perkin Elmer) or equivalent).
The LXR/LXRE co-transfection assay can be used to establish the EC50/IC50 values for potency and percent activity or inhibition for efficacy. Efficacy defines the activity of a compound relative to a high control 1-(2,4-difluorobenzyl)-2-oxo-6-(4-phenoxyphenyl)-4-(trifluoromethyl)-1,2-dihydropyridine-3-carbonitrileor a low control (DMSO/vehicle). The dose response curves are generated from a 11 point curve with concentrations differing by ½ LOG units. Each point represents the average of 2 wells of data from duplicate 384 well plate.
The data from this assay is fitted to the following equation, from which the EC50 value may be solved: Y=Bottom+(Top−Bottom)/(1+10^((logEC50-X)*HillSlope)).
The EC50/IC50 is therefore defined as the concentration at which an agonist or antagonist elicits a response that is halfway between the Top (maximum) and Bottom (baseline) values. The EC50/IC50 values represented are the averages of at least 2 and normally 3 independent experiments. […]

| EC50 [nM] | Emax [%] | SMILES |
| --- | --- | --- |
| 133 | 20 | Cc1nc(C(F)(F)F)cn1-c1ccc(-c2cc(F)c(CO)c(S(C)(=O)=O)c2)cc1-c1nc(C(C)(C)CO)oc1-c1ccc(OC(F)(F)F)cc1 [Example 528, 2-(4-(3′-fluoro-4′-(hydroxymethyl)-4-(2-methyl-4-(trifluoromethyl)-1H-imidazol-1-yl)-5′-(meththsulfonyl)-[1,1′-biphenyl]-3-yl)-5-(4-(trifluoromethoxy)phenyl)oxazol-2-yl)-2-methylpropan-1-ol] |
| 106 | 98 | CNS(=O)(=O)c1cccc(-c2ccc(-n3cc(C(F)(F)F)nc3C)c(-c3ocnc3-c3ccc(OC(F)(F)F)cc3)c2)c1 [Example 357, N-methyl-4′-[2-methyl-4-(trifluoromethyl)-1H-imidazol-1-yl]-3′-(4-{4-[(trifluoromethyl)oxy]phenyl}-1,3-oxazol-5-yl)biphenyl-3-sulfonamide] |
| 12 | 72 | Cc1nc(-c2cc(-c3cccc(S(C)(=O)=O)c3)ccc2-n2cc(C(F)(F)F)nc2C)c(-c2ccc(OC(F)F)nc2)o1 [Example 384, 5-(6-(difluoromethoxy)pyridin-3-yl)-2-methyl-4-(4-(2-methyl-4-(trifluoromethyl)-1H-imidazol-1-yl)-3′-(methylsulfonyl)biphenyl-3-yl)oxazole] |
| 307 | 81 | Cc1nc(C(F)(F)F)cn1-c1ccc(-c2cc(F)c(CO)c(S(C)(=O)=O)c2)cc1-c1ncoc1-c1ccc(Cl)cc1 [Example 365, {3′-[5-(4-chlorophenyl)-1,3-oxazol-4-yl]-3-fluoro-5-(methylsulfonyl)-4′-[2-methyl-4-(trifluoromethyl)-1H-imidazol-1-yl]biphenyl-4-yl}methanol] |
| 103 | 84 | Cc1nc(-c2cc(-c3cccc(S(C)(=O)=O)c3)ccc2-n2cc(C(F)(F)F)nc2C)c(-c2ccc(Cl)cc2)o1 [Example 375, 5-(4-chlorophenyl)-2-methyl-4-{3′-(methylsulfonyl)-4-[2-methyl-4-(trifluoromethyl)-1H-imidazol-1-yl]biphenyl-3-yl}-1,3-oxazole] |
| 257 | 94 | Cc1nc(C(F)(F)F)cn1-c1ccc(-c2cccc(S(C)(=O)=O)c2)cc1-c1oc(CC(=O)O)nc1-c1ccc(OC(F)(F)F)cc1 [Example 610, 2-(5-(4-(2-methyl-4-(trifluoromethyl)-1H-imidazol-1-yl)-3′-(methylsulfonyl)-[1,1′-biphenyl]-3-yl)-4-(4-(trifluoromethoxy)phenyl)oxazol-2-yl)acetic acid] |
| 127 | 99 | Cc1nc(C(F)(F)F)cn1-c1ccc(-c2cc(F)c(CO)c(S(C)(=O)=O)c2)cc1-n1nncc1-c1ccc(OC(F)(F)F)cc1 [Example 211, (3-fluoro-4′-(2-methyl-4-(trifluoromethyl)-1H-imidazol-1-yl)-5-(methylsulfonyl)-3′-(5-(4-(trifluoromethoxy)phenyl)-1H-1,2,3-triazol-1-yl)-[1,1′-biphenyl]-4-yl)methanol] |
| 570 | 93 | Cc1nc(C(F)F)cn1-c1ccc(-c2cccc(S(C)(=O)=O)c2)cc1-n1nncc1-c1ccc(OC(F)(F)F)c(F)c1 [Example 169, 1-{4-[4-(difluoromethyl)-2-methyl-1H-imidazol-1-yl]-3′-(methylsulfonyl)biphenyl-3-yl}-5-{3-fluoro-4-[(trifluoromethyl)oxy]phenyl}-1H-1,2,3-triazole] |
| 572 | 44 | Cc1nc(C(F)(F)F)cn1-c1ccc(-c2cccc(S(C)(=O)=O)c2)cc1-c1nc(C2CC2)cn1-c1ccc(Cl)cc1 [Example 646, 1-(4-chlorophenyl)-4-cyclopropyl-2-(4-(2-methyl-4-(trifluoromethyl)-1H-imidazol-1-yl)-3′-(methylsulfonyl)-[1,1′-biphenyl]-3-yl)-1H-imidazole] |
| 276 | 91 | Cc1nc(C(F)(F)F)cn1-c1ccc(-c2cccc(S(C)(=O)=O)c2)cc1-n1nncc1-c1ccc(C(F)(F)F)cc1 [Example 62, 1-{3′-(methylsulfonyl)-4-[2-methyl-4-(trifluoromethyl)-1H-imidazol-1-yl]biphenyl-3-yl}-5-[4-(trifluoromethyl)phenyl]-1H-1,2,3-triazole] |
| 47 | 103 | Cc1nc(-c2ccc(Cl)cc2Cl)c(-c2cc(-c3ccc(CO)c(S(C)(=O)=O)c3)ccc2-n2cc(C(F)(F)F)nc2C)o1 [Example 614, (3′-(4-(2,4-dichlorophenyl)-2-methyloxazol-5-yl)-4′-(2-methyl-4-(trifluoromethyl)-1H-imidazol-1-yl)-3-(methylsulfonyl)-[1,1′-biphenyl]-4-yl)methanol] |
| 69 | 56 | Cc1nc(-c2cc(-c3cc(F)c(CO)c(S(C)(=O)=O)c3)ccc2-n2cc(C(F)(F)F)nc2C)c(-c2ccc3c(c2)CCC3)o1 [Example 475, (3′-(5-(2,3-dihydro-1H-inden-5-yl)-2-methyloxazol-4-yl)-3-fluoro-4′-(2-methyl-4-(trifluoromethyl)-1H-imidazol-1-yl)-5-(methylsulfonyl)biphenyl-4-yl)methanol] |
| 161 | 66 | Cc1nc(C(F)(F)F)cn1-c1ccc(-c2cc(F)c(CO)c(S(C)(=O)=O)c2)cc1-c1ocnc1Cc1ccc(Cl)cc1 [Example 633, (3′-(4-(4-chlorobenzyl)oxazol-5-yl)-3-fluoro-4′-(2-methyl-4-(trifluoromethyl)-1H-imidazol-1-yl)-5-(methylsulfonyl)-[1,1′-biphenyl]-4-yl)methanol] |
| 210 | 87 | Cc1nc(C(F)(F)F)cn1-c1ccc(-c2cccc(S(=O)(=O)N(C)C)c2)cc1-n1nncc1-c1ccc(OC(F)(F)F)cc1 [Example 214, N,N-dimethyl-4′-(2-methyl-4-(trifluoromethyl)-1H-imidazol-1-yl)-3′-(5-(4-(trifluoromethoxy)phenyl)-1H-1,2,3-triazol-1-yl)-[1,1′-biphenyl]-3-sulfonamide] |
